One test relates to Puccinia recondita. The test can be described thus: Curative activity against Puccinia recondita on wheat (wheat leaf rust). The class given is in vivo. To be noted: wheat seedlings "Kanzler", sprayed 1 day after infection, evaluated after 7 days. On the procedure: (§1) Evaluation is carried out by determining the infected leaf areas in percent. These percentages are converted into efficacies. The efficacy (W) is calculated as follows using Abbot's formula: […]
(§2) α corresponds to the fungal infection of the treated plants in % and β corresponds to the fungal infection of the untreated (control) plants in % An efficacy of 0 means that the infection level of the treated plants corresponds to that of the untreated control plants; an efficacy of 100 means that the treated plants were not infected.
(§3) Colby formula: E=x+y−x·y/100
Curative Activity Against Puccinia recondita on Wheat (Wheat Leaf Rust) Leaves of potted wheat seedlings of the variety “Kanzler” were dusted with spores of leaf rust (Puccinia recondita). […] During this time, the spores germinated and the germinal tubes penetrated into the leaf tissue. […] After the spray coating had dried on, the test plants were cultivated in a greenhouse at from 20 to 22° C. and from 65 to 70% of relative atmospheric humidity for 7 days. Thereafter, the extent of rust fungus development on the leaves was determined.

The subject of test [1] is Erysiphe graminis forma specialis tritici. Briefly: Activity against powdery mildew of wheat. It is filed as in vivo. The settings on record: wheat seedlings "Kanzler", sprayed 24 hours before inoculation, evaluated after 7 days. On the procedure:
as §1, §2, §3
Activity Against Powdery Mildew of Wheat
The test plants were subsequently kept in a greenhouse at 20 to 24° C. and 60 to 90% relative atmospheric humidity. After 7 days, the extent of the mildew development was determined visually in % infection of the total leaf area.

Take `O=C(Nc1ccccc1-c1ccc(Cl)cc1)c1cccnc1Cl` [Compound I.2]: the “Efficacy in % of the untreated control” value (with Puccinia recondita (16 ppm in the spray liquor); in test [1] (1 ppm in the spray liquor); in test [1] (4 ppm in the spray liquor)) was 0% each time.
As for `CCCCCCCCCCCCCN1CC(C)OC(C)C1` (stereo not shown) [Compound IIc, tridemorph], the “Efficacy in % of the untreated control” value in the test on Puccinia recondita (63 ppm in the spray liquor) stood at 0%; in test [1] (4 ppm in the spray liquor), 0%; in test [1] (16 ppm in the spray liquor) it was 20%.
With `CC(Cc1ccc(C(C)(C)C)cc1)CN1C[C@@H](C)O[C@@H](C)C1` (stereo partly shown) [Compound IIa, fenpropimorph], the results for the “Efficacy in % of the untreated control” value (in the test on Puccinia recondita (16 ppm in the spray liquor); in test [1] (1 ppm in the spray liquor); in test [1] (4 ppm in the spray liquor)) were 20%, 0% and 20%, respectively.
As for `CC(Cc1ccc(C(C)(C)C)cc1)CN1CCCCC1` (stereo not shown) [Compound IIb, fenpropidin], the entries for the “Efficacy in % of the untreated control” value (in the test on Puccinia recondita (16 ppm in the spray liquor); in test [1] (1 ppm in the spray liquor); in test [1] (4 ppm in the spray liquor)) were 20%, 0% and 30%, respectively.
Regarding `O=C(Nc1ccccc1-c1ccc(F)cc1)c1cccnc1Cl` [Compound I.1], the “Efficacy in % of the untreated control” value (with Puccinia recondita (16 ppm in the spray liquor); in the test on Puccinia recondita (63 ppm in the spray liquor); in test [1] (4 ppm in the spray liquor); in test [1] (16 ppm in the spray liquor)) was 0% each time.
